Two compounds from US10591497B2, “Immunoassay for synthetic cannabinoids of the adamantyl indazole/indole-3-carboxamide family” (Randox Laboratories Limited, priority 2014, dated 2020) can be followed below.

The test system of the assay is antibody derived from Immunogen of Example 9. Kind of assay: Competitive immunoassay (ELISA), IC50 derivation and cross-reactivity. Particulars: for binding to the antibodies of the invention: "does not bind" = cross-reactivity of less than 2% vs 100% for AKB48 under Example 12 conditions; for % CROSS-REACTIVITY: single cross-reactant at 300 ng/ml, compared to 100% for AKB48, Tracer 1 of Example 10. Type of assay: binding, sheep. Here is the method:
All cross-reactivity are measured herein under the experimental conditions of Example 12 and compared to 100% for AKB48.
IgG is extracted from the antisera and immobilised on a 96 well ELISA plate (coated for 2 hours at +37° C. at 10 ug/ml in a Phosphate Buffered Saline pH7.2). Unbound material is removed by washing with Tris Buffered Saline (TBS) containing tween ([…]) over 10 minutes. Standard AKB48 is added at the concentrations quoted in Table 1, followed by detection agent 1 (FIG. 2) at 1/140 k in a dilution buffer. After incubation (60 mins) at +15 to +25° C. to allow a competition reaction to take place, the microtitre plate is washed with TBS containing Tween™ to remove excess reagents. The enzyme substrate […] (125 μl) is added (Kem-en-Tec Cat. No. 4800). After a 20 minute incubation period to allow maximum colour development, the colour reaction is stopped by the addition of sulphuric acid (0.2M, 120 μl). This produces a colour change from blue to yellow, and the absorbances are read at 450 nm. A standard curve is then constructed and the IC50 calculated as the AKB48 concentration which produces 50% inhibition of maximal signal. This process was repeated for synthetic cannabinoid members as stated in Table 2 to assess cross-reactivity.
The cross-reactivity (CR) was calculated using the equation below. All calculations were based upon binding and displacement at the 50% of maximum OD (optical density) binding point. The maximum OD is the signal generated using tracer alone and 50% displacement (inhibition) corresponds to the IC50. […]
The extent of antibody binding to synthetic cannabinoids of various families was assessed (Table 2). For the cross-reactants with IC50 values, standard curves were derived for each analyte (as per AKB48 and Table 1). […] In all cases, the cross-reactivity set out in Table 2 was measured using an antibody derived from the immunogen of Example 9 and Tracer 1 of Example 10.

With `CCCCCn1cc(C(=O)C2C(C)(C)C2(C)C)c2ccccc21` [UR-144], the “binding to the antibodies of the invention” value was “do not bind” and the “% CROSS-REACTIVITY” value is recorded as <1.00%.
With `CC1(C)C(C(=O)c2cn(CCCCCF)c3ccccc23)C1(C)C` [XLR-11], the “binding to the antibodies of the invention” value is on record as “do not bind” and the “% CROSS-REACTIVITY” value was <1.00%.
